Results as given in paper PMC11945486, “TAS1R2/TAS1R3 Single-Nucleotide Polymorphisms Affect Sweet Taste Receptor Activation by Sweeteners: The SWEET Project” (Nutrients, 2025).

Target: T1, human TAS1R2-R838K (subunit alone) (Homo sapiens, UniProt Q8TE23, R838K)
T1 construct: expressed in transfected cells; host or cells: HEK293T stably expressing Gα16gust44
T1 sequence (Q8TE23 20-839 R838K): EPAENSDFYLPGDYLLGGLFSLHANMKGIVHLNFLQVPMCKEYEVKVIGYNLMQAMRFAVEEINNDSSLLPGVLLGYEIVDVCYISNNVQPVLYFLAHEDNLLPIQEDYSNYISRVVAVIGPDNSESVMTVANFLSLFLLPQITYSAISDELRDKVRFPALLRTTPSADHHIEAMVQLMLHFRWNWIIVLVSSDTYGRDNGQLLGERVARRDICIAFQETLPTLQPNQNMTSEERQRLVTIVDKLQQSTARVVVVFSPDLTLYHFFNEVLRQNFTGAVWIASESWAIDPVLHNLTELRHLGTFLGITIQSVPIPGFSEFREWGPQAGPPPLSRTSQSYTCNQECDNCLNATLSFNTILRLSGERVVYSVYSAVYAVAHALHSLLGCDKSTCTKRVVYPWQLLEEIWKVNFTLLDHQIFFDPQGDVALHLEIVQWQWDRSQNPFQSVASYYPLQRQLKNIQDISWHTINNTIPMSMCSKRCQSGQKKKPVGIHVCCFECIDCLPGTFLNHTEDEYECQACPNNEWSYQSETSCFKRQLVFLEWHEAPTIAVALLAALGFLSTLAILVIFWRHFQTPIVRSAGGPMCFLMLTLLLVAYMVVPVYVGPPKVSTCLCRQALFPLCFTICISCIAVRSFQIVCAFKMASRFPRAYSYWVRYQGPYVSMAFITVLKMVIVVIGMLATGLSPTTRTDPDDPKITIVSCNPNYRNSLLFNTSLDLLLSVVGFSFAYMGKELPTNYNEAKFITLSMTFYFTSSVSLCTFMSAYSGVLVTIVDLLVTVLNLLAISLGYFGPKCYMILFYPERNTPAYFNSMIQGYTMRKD
Experiment: Calcium mobilisation assay, TAS1R2-R838K subunit alone
Assay type: cell-based
Description: The coding sequences for TAS1R2 and TAS1R3 were commercially synthesised, and the human codon was optimised for expression in human cells. The coding sequences of human TAS1R2 and TAS1R3 were subcloned and inserted into the mammalian expression vectors pcDNA6/myc-HisA and pcDNA4/myc-HisA (Invitrogen; Thermo Fisher Scientific; Illkirch, France) between the EcoRI and NotI restriction sites, generating the plasmids pcDNA6-TAS1R2 and pcDNA4-TAS1R3, respectively. To increase protein expression in mammalian cells, an upstream start codon was used, which was a sequence called MAX, corresponding to the QBI SP163 element also described in pcDNA4-HisMax (Invitrogen; Thermo Fisher Scientific; Illkirch, France). To measure the expression level of the receptor by immunohistochemistry, we used the FLAG sequence ([…]) in the C-terminal position, which encodes the FLAG tag epitope. […]
The HEK293T cells were kindly provided by Jay P. Slack (Givaudan Flavors Corporation; Cincinnati, OH, USA). […] The fluorescence intensity was measured for 90 s (excitation 488 nm, emission 510 nm) in an automated fluorometric FlexStation®3 Multi-Mode microplate reader (Molecular Devices; San Jose, CA, USA). […] The Ca^2+ changes were expressed as fractional changes in fluorescent light intensity: ΔF/F = (F − F0)/F0, where F was the fluorescent light intensity at each point, and F0 was the value of emitted fluorescent light prior to stimulus application. To calculate dose–response relationships, the changes in fluorescence upon stimulus application were averaged, mock-subtracted and baseline-corrected. […] The half-maximal effective concentrations (EC50 values) and maximal signal amplitudes were calculated using SigmaPlot software (version 15.0) (Systat Software; San Jose, CA, USA).
For in vitro calcium mobilisation assay performed on hTAS1R2-SNPs, hTAS1R3-SNPs and mTAS1R3-I60T, 6 to 7 concentrations were tested for each sweet compound, plus buffer alone. All concentration–receptor combinations were measured in duplicate, and each experiment was repeated at least 4 times (8 wells/concentration). […]

For `C=C(C)[C@@H]1CC=C(/C=N/O)CC1` [Perillartine, perillartine], the EC50 was 92.4 ± 19.7 µM, the “R1 = Variant EC50/WT EC50” value was 1.0 and the “Max ΔF/F0” value (maximal signal amplitude) was 0.35 ± 0.03.
